Calls of active or inactive are those of the source.
What was measured:
[1] = target: T1, Mannose-6-phosphate isomerase (Homo sapiens, UniProt P34949); experiment: MPI enzyme activity inhibition – biochemical, fluorescence intensity, coupled assay, primary screen (AID 1209)
T1 sequence (P34949 whole entry): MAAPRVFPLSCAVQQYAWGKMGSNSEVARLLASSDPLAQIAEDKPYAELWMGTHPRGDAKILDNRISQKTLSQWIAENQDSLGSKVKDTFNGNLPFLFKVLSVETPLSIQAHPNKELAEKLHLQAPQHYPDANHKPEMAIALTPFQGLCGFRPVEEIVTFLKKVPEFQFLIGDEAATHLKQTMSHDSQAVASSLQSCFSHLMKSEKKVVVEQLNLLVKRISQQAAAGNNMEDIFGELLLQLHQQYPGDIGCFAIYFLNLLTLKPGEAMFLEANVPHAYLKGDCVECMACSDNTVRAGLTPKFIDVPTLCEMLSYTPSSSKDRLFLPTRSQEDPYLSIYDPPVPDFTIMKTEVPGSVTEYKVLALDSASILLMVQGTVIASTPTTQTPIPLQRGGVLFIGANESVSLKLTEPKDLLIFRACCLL

[2] = target: T1, Mannose-6-phosphate isomerase; experiment: MPI inhibition at elevated mannose 6-phosphate – biochemical, fluorescence intensity, high mannose 6-phosphate, primary screen (AID 1220)
[3] = target: DNA dC->dU-editing enzyme APOBEC-3A (Homo sapiens, UniProt P31941); experiment: A3A deaminase inhibition for selectivity – biochemical, dose response (AID 504722); type: functional
[4] = target: DNA dC->dU-editing enzyme APOBEC-3G (Homo sapiens, UniProt Q9HC16); experiment: Dose Response confirmation of small molecule APOBEC3G DNA Deaminase Inhibitors via a fluorescence-based single-stranded DNA deaminase assay. [Related pubchem assays (depositor defined):AID493012, AID493028]; type: functional
Bcl-2-like protein 10 = target: T2, Bcl-2-like protein 10 (Homo sapiens, UniProt Q9HD36); experiment: Bcl-B/TR3 peptide binding disruption – biochemical, fluorescence polarization, FITC-TR3 peptide, selectivity assay for Bfl-1 inhibitor project, primary screen (AID 748);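 also: fluorescence polarization from a fluorescein-labelled TR3 peptide binding purified Bcl-B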
T2 sequence (Q9HD36 whole entry): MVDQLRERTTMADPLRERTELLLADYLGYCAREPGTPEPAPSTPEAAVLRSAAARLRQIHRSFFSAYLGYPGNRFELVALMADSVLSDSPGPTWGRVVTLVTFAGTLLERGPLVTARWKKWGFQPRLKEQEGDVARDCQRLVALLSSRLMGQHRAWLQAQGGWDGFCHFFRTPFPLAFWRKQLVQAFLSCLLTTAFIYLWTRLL

Estrogen receptor beta [5] = target: T3, Estrogen receptor beta (Homo sapiens, UniProt Q92731);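 also: recombinant ER-beta bound to coactivator SRC1 peptide in presence of estradiol agonist; inhibitors block coactivator peptide binding and lower the FRET signal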
Estrogen receptor beta [6] = target: T3, Estrogen receptor beta; experiment: blockers of SRC-3 recruitment to ERβ – biochemical, ELISA, streptavidin-HRP readout, orthogonal assay, confirmation (AID 1060)
[7] = target: T4, Eukaryotic translation initiation factor 2-alpha kinase 3 (Homo sapiens, UniProt Q9NZJ5); experiment: Dose response cell-based high-throughput screening assay to measure PERK inhibition. [Related pubchem assays: 1416 ]; type: functional
T4 sequence (Q9NZJ5 whole entry): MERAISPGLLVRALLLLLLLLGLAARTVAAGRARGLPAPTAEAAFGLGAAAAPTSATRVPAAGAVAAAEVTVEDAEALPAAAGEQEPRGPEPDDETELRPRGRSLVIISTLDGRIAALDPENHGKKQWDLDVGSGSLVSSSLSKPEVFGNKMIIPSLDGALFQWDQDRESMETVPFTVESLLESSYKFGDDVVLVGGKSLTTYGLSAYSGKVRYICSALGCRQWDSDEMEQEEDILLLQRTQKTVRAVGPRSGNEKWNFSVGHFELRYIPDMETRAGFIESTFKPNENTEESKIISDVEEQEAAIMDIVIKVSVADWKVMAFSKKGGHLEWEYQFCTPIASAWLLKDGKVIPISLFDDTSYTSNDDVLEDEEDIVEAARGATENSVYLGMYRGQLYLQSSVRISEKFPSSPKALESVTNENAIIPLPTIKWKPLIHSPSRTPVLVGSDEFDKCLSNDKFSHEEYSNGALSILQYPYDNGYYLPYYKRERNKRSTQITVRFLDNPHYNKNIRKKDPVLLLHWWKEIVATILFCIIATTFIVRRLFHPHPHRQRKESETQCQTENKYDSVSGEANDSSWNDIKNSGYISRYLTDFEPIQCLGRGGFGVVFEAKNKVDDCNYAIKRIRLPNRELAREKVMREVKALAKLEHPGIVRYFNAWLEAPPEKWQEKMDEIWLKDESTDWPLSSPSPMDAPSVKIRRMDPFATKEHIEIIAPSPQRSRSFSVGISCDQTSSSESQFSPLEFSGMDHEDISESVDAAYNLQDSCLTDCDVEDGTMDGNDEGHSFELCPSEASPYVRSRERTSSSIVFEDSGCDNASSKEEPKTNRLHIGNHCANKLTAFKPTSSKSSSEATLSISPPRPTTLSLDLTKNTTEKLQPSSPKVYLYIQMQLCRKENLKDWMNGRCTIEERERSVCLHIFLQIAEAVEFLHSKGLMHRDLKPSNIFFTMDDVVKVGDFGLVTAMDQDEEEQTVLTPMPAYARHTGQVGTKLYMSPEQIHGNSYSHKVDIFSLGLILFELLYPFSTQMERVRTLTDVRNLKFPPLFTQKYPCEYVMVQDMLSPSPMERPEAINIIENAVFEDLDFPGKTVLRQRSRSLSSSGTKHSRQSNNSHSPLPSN

[8] = target: T4, Eukaryotic translation initiation factor 2-alpha kinase 3; experiment: Counterscreen assay for PERK inhibitors: Dose response cell-based high throughput screening assay to measure inhibition of PERK at 6 hours. [Related pubchem assays: 1522, 1416 ]; type: functional
[9] = target: T5, Aryl hydrocarbon receptor (Homo sapiens, UniProt P35869); experiment: Luminescence-based cell-based high throughput dose response assay for activators of the Aryl Hydrocarbon Receptor (AHR). [Related pubchem assays: 2796 (Primary screen (AHR activators in singlicate)), 2845 (Confirmation screen (AHR activators in triplicate)), 434939 (Counterscreen (PXR activators in triplicate)), 2804 (Summary (AHR activators))]; type: ADME
T5 sequence (P35869 whole entry): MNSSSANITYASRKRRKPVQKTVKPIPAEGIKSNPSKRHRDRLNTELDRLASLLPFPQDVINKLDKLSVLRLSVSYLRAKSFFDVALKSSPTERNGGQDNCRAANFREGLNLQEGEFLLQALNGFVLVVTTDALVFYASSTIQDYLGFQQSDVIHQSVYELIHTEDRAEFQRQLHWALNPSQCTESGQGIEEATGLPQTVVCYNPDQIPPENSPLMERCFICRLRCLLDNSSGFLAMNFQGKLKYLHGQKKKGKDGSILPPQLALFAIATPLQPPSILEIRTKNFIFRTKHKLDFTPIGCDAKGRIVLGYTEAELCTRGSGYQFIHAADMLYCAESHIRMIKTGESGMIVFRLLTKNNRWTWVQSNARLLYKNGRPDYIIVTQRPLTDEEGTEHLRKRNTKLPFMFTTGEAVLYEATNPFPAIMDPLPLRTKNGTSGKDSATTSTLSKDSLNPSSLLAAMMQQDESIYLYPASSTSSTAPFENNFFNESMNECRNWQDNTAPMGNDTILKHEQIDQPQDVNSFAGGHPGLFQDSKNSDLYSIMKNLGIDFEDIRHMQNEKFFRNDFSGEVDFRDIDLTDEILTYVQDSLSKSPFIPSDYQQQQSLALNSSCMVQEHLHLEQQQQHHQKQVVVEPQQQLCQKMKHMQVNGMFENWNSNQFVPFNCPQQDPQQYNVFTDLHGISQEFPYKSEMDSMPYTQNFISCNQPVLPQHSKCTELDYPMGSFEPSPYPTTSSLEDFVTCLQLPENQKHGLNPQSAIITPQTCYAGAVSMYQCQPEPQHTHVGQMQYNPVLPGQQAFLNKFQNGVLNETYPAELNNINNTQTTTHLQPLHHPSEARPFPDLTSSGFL

[10] = target: Peroxisome proliferator-activated receptor gamma/Nuclear receptor coactivator 2 (Homo sapiens, UniProt P37231); type: functional;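 also: agonist potency for raising coactivator recruitment to the receptor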
[11] = target: Peroxisome proliferator-activated receptor gamma/Nuclear receptor coactivator 1 (Homo sapiens, UniProt P37231); type: functional;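 also: agonist potency as compounds enhance coactivator SRC-1 recruitment to PPARgamma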
[12] = target: Peroxisome proliferator-activated receptor gamma/Nuclear receptor coactivator 3 (Homo sapiens, UniProt P37231); type: functional;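 also: agonist potency for raising coactivator recruitment to the receptor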
[13] = target: Lysosomal acid glucosylceramidase (Homo sapiens, UniProt P04062); experiment: Dose response cell-based high throughput screening assay to identify enhancers of beta-glucosidase activity. [Related pubchem assays: 784 ]; type: functional
[14] = system: Streptococcus sp. 'group A'; experiment: Streptococcus pyogenes SK(-)GAS viability under kanamycin – luminescence, BacTiterGlo, confirmation, counter-screen for streptokinase expression inhibitor project, dose response (AID 1900); type: functional, organism-based
Streptokinase A = target: T6, Streptokinase A (Streptococcus pyogenes serotype M1, UniProt P10520); experiment: viability-normalized secreted streptokinase activity reduction – plasminogen activation absorbance, OD405, dose response (AID 1914); type: functional, Streptococcus pyogenes M1 GAS;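 also: secreted streptokinase activity via plasminogen activation per viability signal from cell pellet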
T6 sequence (P10520 whole entry): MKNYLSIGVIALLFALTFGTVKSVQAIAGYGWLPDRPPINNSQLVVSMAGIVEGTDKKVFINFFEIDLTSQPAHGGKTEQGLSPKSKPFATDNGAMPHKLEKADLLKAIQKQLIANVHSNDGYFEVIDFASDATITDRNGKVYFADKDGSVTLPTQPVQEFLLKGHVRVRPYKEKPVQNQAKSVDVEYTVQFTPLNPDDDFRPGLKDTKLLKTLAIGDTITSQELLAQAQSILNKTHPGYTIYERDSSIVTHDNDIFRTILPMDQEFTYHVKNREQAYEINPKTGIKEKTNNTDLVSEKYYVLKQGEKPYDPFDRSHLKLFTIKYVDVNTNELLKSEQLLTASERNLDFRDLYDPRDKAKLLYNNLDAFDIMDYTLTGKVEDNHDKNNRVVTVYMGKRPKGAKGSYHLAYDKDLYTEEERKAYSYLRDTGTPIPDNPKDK

[15] = Trypanosoma cruzi growth suppression in host cells – NIH3T3 host cells, beta-gal luminescence, confirmation (AID 2044); type: functional, cell-based;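 also: intracellular parasites grown in NIH/3T3 mouse fibroblasts as host cells; luminescent beta-galactosidase reporter signal from transgenic T. cruzi replicating inside host cells; inhibitors lower the luminescence signal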
[16] = viability of PTEN-deleted HCT116 cells – cell-based, HCT116 PTEN knockout, dose response (AID 1047); type: functional;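 also: HCT116 colon tumor cells with PTEN knocked out; cells exposed to compound for 60 hours before readout; potency for loss of cell viability measured by luminescence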
[17] = NIH3T3 cell viability loss – ATP luminescence, mouse fibroblasts, counter-screen, dose response (AID 2010); type: functional, cell-based;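 also: cells exposed to compound for about 90 hours before reading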
[18] = viability of HCT116 lacking mutant beta-catenin – cell-based, human colon tumor, dose response (AID 1045); type: functional;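 also: HCT116 colon tumor cells with beta catenin knocked out; cells exposed to compound for 60 hours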
Streptococcus = experiment: GAS UMAA2166 growth inhibition – luminescence, BacTiterGlo, counter-screen for streptokinase expression inhibitor project, dose response (AID 1915); type: functional, organism-based;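 also: potency for reduction of bacterial viability or growth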
Vero = experiment: cells; type: functional; details: Chlorocebus sabaeus
Estrogen receptor = target: T7, Estrogen receptor (Homo sapiens, UniProt P03372);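 also: potency for inhibiting coactivator peptide recruitment to the receptor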
T7 sequence (P03372 whole entry): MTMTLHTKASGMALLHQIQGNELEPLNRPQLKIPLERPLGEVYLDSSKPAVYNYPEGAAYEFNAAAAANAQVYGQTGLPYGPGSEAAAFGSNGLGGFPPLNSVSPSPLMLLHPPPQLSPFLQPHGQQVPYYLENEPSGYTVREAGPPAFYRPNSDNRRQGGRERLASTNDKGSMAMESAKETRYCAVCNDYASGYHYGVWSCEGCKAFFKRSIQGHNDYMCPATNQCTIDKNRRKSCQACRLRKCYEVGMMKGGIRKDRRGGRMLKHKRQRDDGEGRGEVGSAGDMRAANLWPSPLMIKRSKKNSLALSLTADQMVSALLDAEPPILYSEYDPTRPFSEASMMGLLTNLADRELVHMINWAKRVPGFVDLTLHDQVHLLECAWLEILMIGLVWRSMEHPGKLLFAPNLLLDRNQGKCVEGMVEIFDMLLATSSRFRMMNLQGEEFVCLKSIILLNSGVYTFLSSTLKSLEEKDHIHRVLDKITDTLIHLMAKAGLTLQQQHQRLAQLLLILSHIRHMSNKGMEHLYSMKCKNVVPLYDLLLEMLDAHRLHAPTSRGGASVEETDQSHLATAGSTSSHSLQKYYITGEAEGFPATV

[19] = target: Protein-tyrosine kinase 2-beta (Homo sapiens, UniProt Q14289);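 also: potency of inhibitors of PYK2 kinase phosphorylation of poly-GT substrate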

T3 sequence (Q92731 whole entry): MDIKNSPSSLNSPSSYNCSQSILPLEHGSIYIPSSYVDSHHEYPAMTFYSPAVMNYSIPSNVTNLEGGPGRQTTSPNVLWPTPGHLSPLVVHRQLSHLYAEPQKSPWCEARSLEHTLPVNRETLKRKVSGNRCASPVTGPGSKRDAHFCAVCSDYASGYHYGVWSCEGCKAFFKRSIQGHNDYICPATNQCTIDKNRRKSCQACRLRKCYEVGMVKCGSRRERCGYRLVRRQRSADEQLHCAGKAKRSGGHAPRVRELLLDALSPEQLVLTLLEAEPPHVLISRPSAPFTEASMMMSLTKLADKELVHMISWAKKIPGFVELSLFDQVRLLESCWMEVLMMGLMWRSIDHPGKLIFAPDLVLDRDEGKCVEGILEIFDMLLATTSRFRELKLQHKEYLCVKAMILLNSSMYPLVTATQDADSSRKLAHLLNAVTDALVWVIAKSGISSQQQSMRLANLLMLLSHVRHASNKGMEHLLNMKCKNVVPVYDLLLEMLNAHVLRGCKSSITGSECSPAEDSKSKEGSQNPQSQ
Sequence of Peroxisome proliferator-activated receptor gamma/Nuclear receptor coactivator 1 (P37231 whole entry): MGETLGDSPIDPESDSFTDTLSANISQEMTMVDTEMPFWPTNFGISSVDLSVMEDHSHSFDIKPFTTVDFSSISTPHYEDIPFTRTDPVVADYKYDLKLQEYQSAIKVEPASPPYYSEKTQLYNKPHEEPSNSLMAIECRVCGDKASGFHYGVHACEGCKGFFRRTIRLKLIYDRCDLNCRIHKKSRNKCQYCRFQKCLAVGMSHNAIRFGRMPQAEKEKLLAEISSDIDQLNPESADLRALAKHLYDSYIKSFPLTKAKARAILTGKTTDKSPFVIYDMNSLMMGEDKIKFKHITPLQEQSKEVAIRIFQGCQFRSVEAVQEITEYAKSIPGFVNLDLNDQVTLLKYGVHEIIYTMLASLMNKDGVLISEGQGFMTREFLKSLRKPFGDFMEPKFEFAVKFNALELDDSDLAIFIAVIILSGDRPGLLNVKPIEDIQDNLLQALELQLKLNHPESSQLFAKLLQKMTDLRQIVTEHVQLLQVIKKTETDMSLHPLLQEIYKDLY
Sequence of Peroxisome proliferator-activated receptor gamma/Nuclear receptor coactivator 1 (Q15788 whole entry, further chain): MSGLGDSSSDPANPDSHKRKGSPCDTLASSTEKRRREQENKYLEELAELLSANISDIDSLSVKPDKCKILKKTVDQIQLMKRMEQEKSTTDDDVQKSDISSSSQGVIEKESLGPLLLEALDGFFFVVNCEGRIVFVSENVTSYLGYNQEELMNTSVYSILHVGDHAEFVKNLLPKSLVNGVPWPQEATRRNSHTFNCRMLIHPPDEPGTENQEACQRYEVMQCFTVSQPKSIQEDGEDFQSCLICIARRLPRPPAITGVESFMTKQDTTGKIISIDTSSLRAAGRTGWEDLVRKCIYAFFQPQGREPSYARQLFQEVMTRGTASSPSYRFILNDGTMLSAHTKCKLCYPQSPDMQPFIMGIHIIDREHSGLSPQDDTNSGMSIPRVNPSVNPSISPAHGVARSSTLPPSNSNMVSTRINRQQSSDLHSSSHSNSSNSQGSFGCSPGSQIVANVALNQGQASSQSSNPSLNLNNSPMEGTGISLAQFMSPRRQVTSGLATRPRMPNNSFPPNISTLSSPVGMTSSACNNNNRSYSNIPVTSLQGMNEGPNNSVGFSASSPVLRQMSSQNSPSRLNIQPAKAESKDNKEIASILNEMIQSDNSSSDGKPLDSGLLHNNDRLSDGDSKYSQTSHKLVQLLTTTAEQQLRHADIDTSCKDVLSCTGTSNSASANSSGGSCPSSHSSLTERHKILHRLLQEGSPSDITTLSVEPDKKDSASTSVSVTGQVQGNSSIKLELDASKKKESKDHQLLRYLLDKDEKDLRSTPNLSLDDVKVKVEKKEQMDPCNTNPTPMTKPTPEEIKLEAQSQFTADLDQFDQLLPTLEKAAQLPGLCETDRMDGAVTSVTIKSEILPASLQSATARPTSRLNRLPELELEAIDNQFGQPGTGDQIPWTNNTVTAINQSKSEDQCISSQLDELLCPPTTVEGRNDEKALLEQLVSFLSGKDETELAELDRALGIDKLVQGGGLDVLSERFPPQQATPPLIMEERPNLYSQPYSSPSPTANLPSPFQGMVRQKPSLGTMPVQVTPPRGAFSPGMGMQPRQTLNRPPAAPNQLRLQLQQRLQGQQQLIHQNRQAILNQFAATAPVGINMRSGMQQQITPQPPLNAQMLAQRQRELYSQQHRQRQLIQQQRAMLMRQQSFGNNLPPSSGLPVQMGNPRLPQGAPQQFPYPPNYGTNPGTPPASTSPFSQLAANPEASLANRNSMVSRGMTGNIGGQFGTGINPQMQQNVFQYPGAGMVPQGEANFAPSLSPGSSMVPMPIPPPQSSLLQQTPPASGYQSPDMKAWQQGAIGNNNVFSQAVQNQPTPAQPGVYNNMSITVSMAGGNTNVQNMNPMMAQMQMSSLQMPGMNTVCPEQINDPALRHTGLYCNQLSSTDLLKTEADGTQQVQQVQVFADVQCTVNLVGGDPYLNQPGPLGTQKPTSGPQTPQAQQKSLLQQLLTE
Sequence of Peroxisome proliferator-activated receptor gamma/Nuclear receptor coactivator 3 (P37231 whole entry): as the sequence (P37231 whole entry) above
Sequence of Peroxisome proliferator-activated receptor gamma/Nuclear receptor coactivator 3 (Q9Y6Q9 whole entry, further chain): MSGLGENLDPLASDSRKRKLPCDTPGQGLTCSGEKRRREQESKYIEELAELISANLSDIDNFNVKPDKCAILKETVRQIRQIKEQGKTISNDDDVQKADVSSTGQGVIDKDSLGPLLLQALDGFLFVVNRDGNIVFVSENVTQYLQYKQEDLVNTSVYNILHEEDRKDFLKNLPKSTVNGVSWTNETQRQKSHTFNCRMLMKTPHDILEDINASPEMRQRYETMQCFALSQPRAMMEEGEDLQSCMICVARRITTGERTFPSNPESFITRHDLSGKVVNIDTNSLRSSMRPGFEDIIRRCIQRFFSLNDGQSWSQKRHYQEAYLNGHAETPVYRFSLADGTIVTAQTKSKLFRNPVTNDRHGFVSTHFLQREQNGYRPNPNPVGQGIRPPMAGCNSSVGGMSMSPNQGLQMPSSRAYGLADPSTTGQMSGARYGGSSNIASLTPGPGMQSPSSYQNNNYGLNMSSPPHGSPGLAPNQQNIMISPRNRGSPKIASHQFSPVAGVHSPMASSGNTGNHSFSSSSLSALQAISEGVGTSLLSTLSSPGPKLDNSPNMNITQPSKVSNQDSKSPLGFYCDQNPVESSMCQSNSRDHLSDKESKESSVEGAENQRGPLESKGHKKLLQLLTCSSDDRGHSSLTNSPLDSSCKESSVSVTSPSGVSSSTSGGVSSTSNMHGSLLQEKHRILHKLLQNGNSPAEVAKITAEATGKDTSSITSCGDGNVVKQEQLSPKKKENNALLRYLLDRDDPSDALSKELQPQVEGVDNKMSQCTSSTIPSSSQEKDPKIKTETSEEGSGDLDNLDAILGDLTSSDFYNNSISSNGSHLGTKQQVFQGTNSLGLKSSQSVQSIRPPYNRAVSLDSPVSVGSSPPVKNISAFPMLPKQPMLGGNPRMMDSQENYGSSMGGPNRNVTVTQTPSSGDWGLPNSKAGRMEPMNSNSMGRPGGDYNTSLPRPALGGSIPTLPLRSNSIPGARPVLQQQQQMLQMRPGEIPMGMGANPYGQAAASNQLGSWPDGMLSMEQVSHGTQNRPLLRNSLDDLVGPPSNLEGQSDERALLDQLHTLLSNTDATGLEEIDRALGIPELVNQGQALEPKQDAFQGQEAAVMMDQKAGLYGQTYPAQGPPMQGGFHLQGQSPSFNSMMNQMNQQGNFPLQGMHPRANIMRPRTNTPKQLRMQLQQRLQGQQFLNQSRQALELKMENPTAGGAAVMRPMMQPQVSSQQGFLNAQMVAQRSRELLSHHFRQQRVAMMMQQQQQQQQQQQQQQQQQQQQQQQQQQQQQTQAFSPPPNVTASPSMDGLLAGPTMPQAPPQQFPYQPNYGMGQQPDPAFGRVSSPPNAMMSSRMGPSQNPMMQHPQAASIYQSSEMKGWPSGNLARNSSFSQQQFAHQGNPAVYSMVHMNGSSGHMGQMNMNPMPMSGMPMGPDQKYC
Sequence of Lysosomal acid glucosylceramidase (P04062 whole entry): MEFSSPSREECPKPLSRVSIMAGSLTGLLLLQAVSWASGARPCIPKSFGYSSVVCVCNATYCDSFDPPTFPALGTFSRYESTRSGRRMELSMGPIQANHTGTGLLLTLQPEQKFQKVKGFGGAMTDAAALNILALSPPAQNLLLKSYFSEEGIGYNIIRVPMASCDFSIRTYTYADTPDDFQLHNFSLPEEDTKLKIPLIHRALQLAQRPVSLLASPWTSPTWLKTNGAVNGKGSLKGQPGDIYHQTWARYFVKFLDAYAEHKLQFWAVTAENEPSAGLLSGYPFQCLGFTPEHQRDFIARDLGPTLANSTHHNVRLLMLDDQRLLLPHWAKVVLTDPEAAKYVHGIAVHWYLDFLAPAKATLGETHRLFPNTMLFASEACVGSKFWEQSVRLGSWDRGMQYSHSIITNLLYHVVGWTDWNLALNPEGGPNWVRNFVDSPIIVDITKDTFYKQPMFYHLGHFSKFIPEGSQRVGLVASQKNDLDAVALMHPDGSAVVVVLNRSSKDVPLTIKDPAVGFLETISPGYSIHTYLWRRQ

## CC1(C)Cc2c(sc3ncn4c(S)nnc4c23)CO1
[1]
  IC50: > 50 µM (not active)
[2]
  IC50: > 50 µM (not active)
[3]
  IC50: > 100 µM (inactive)
[4]
  IC50: 3.8 µM (active)

## COc1ccc(C(N)CCc2ccc(C)o2)cc1 (stereo not given)
Bcl-2-like protein 10
  IC50: > 50 µM (inactive)
Estrogen receptor beta [5]
  IC50: 6.8 µM (active)
Estrogen receptor beta [6]
  IC50: 93.7 µM (not active)

## O=C(O)c1ccc(C[S+]([O-])c2cccc(C(F)(F)F)c2)o1 (stereo not given)
[7]
  EC50: > 55.7 µM (not active)
[8]
  EC50: > 55.7 µM (not active)

## Cc1cnc(NC(=O)c2c(Cl)cnn2C)s1
[9]
  EC50: 5.87 µM (active)

## CCOC(=O)c1c(C)noc1-c1ccc(Br)o1
[7]
  EC50: > 55.7 µM (not active)
[8]
  EC50: > 55.7 µM (not active)

## COc1ccccc1C(=O)Nc1ccccn1
[10]
  EC50: > 79.4 µM (not active)
[11]
  EC50: > 79.4 µM (not active)
[12]
  EC50: > 79.4 µM (not active)

## CC(C)Cn1c(N)c(C(=O)NCc2cccs2)c2nc3ccccc3nc21
[13]
  EC50: 2.49 µM (active)
[14]
  EC50: 3.56 µM (active)
Streptokinase A
  EC50: 30.2 µM (active)
[15]
  EC50: 2.17 µM (active)
[16]
  EC50: 36 µM (active)
[17]
  EC50: > 60 µM (not active)
[18]
  EC50: 47 µM (active)
Streptococcus
  EC50: 7.88 µM (active)
Vero
  CC50: 14 µM (active)

## CC1CCN(S(=O)(=O)c2ccc(C(=O)Nc3sccc3C(N)=O)cc2)CC1
[10]
  EC50: 145 µM (not active)
[11]
  EC50: 71.2 µM (not active)
[12]
  EC50: 79.2 µM (not active)

## CCC1(C)NC(=O)N(CC(=O)Nc2sc3c(c2C(N)=O)CCC3)C1=O (stereo not given)
Estrogen receptor
  IC50: 18.2 µM (active)
Estrogen receptor beta [6]
  IC50: 0.0325 µM (not active)

## C=CCn1c(SCC(=O)N2CCCC2)nc2scc(-c3cccs3)c2c1=O
[19]
  IC50: > 69.5 µM (not active)

Reference: ChEMBL document CHEMBL1201862, “PubChem BioAssay data set” (2004)
